Laboratory results published in patent publication US7507766B2, “Treatment of cancers” (Pharma Mar, S.A., priority 2000, dated 2009).
“Also recorded” adds a separate entry of the source. Starred links: 1 amine or outer side, 2 acyl side, 3 side chain; linkers in the order of their positions; H or OH if unused. Positions of bridges follow the written chain, without caps; N, C: chain ends. Non-standard residues stand in square brackets, D forms with d. Residues, ends and D or L forms follow the SMILES beside them. *: point of attachment. X1 = CC[C@H](C)[C@@H](N[*:1])[C@@H](O)CC(=O)O[C@H](C(=O)[C@H](C)C(=O)[*:2])C(C)C; NMeY = CN[C@@H](Cc1ccc(O)cc1)C(=O)O; dNMeL = CN[C@H](CC(C)C)C(=O)O; Pyruvoyl = CC(=O)C(=O)*

Assays:
[1] = tested on: panel of 25 human tumor cell lines; test: tumor protection by L-carnitine in panel of tumor cell lines; type: cell-based; conditions: initial results
Description: The possibility of tumor protection by L-carnitine was evaluated using a panel of 25 human tumor cell lines.

[2] = Phase I studies: aplidine myotoxicity and L-carnitine as myoprotector; type: in vivo, human
Description: More generally, the invention involves the use of a muscle protector in conjunction with aplidine therapy. We have found in particular that carnitine is beneficial in treating myotoxicity that is associated with chemotherapy with the experimental drug aplidine. […] When L-carnitine 4.5 g/day was added to the therapy (at doses of 1.5 g three times daily), or 0.1 mg/kg (at doses of 0.033 mg 3 times daily) patients were able to tolerate doses of aplidine up to 6000 mcg/m 2 every second week. […] Therefore, muscle protectors such as L-carnitine is a useful myoprotector for patients being treated with aplidine or an aplidine analogue.
L-carnitine at a dose of 1.5 grams 3 times per day or 0.033 g/kg 3 times per day was started in all patients of study APL-A-003-98.

ornithine decarboxylase = biological target: T1, ornithine decarboxylase (Homo sapiens, UniProt P11926); conditions: all three cell lines; cited from earlier work
T1 construct: endogenous in cells; host or cells: CT-1, CT-2 and HT-29 colon carcinoma cell lines
T1 sequence (P11926 1-461): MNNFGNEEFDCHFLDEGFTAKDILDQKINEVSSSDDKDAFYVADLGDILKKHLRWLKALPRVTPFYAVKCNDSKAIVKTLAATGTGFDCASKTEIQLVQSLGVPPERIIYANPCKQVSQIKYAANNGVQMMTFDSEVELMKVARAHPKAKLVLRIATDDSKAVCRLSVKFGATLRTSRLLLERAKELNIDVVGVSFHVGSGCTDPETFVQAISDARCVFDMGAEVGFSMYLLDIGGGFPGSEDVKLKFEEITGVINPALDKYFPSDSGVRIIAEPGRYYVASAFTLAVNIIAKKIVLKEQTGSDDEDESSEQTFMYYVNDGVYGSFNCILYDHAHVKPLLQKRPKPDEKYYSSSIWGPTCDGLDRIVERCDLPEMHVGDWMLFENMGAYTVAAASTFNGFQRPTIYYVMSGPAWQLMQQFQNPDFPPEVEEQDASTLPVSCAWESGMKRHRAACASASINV

MDA-MB231 = conditions: aplidine; cited from earlier work
[3] = tested on: gene (FLT1) encoding the receptor of the Vascular Endothelial Growth Factor (VEGF); test: expression of the gene FLT1; type: cell-based
[4] = stability of aplidine solution and lyophilised dosage form; conditions: heat and light stress testing
Description: In a currently preferred embodiment freeze-drying was performed from a […] solution of aplidine in 40% (v/v) tert-butanol in Water for Injection (Wfl) containing 25 mg/mL D-mannitol as bulking agent.

B16 melanoma = conditions: mice; cited from earlier work
[5] = Phase I study, 24 h continuous infusion every other week: toxicities; type: in vivo, human
Description: (§1) Definitions for patient toxicities are adopted from WHO Criteria and the responses determined following WHO Response Criteria.
(§2) A phase I and pharmacokinetic study of aplidine, given as a 24 h continuous infusion every other week in patients with solid tumours and non-Hodgkin lymphoma

[6] = tested on: Non-small cell lung cancer, breast cancer and melanoma cell lines; conditions: cited from earlier work
lewis lung carcinomas = conditions: mouse, in vivo; cited from earlier work
[7] = Phase I study, 24 h continuous infusion every other week: pharmacokinetics; type: in vivo, human
Description: as §2

[8] = Phase I clinical studies: MTD, DLT and RD per dosing regime; type: in vivo, human
Text: The Recommended Dose (RD) is the highest dose which can be safely administered to a patient producing tolerable, manageable and reversibly toxicity according to the Common Toxicity Criteria established by the National Cancer Institute, (USA) with no more than […] patients presenting any dose limiting toxicities (DLT). Guidelines for cancer therapy frequently call for administration of chemotherapeutic agents at the highest safe dose at which toxicity is manageable in order to achieve maximum efficacy (DeVita, V. T. Jr., Hellman, S. and Rosenberg, S. A., Cancer: Principles and Practice of Oncology, 3rd ed., 1989, Lipincott, Philadelphia).
DLTs for aplidine using this method of treatment were determined in clinical studies. These studies established a recommended dose level for differing kinds of dosing protocols.

MCF-7 = conditions: aplidine 50 mmol/L; cited from earlier work
P388 leukaemia = conditions: mice; cited from earlier work
human cancer xenografts = conditions: cited from earlier work
spermidine and spermine = conditions: cited from earlier work
[9] = tested on: human colon cancer cell line, HT-29; conditions: cited from earlier work
cell cycle = conditions: cited from earlier work
human bladder cancer = human bladder cancer animal models; type: in vivo; conditions: complete remissions in some animal models
VEGF protein = test: production of VEGF protein by tumour cells; type: cell-based
[10] = tested on: solid tumours and non-Hodgkin lymphoma; test: clinical trials: antitumour responses in patients; type: in vivo, human
Description: as §1, §2

CT-1 = conditions: cited from earlier work
CT-2 = conditions: cited from earlier work
[11] = dose level 200 mcg/m^2/2 wks, of 3 patients
[12] = dose level 400 mcg/m^2/2 wks, of 3 patients
[13] = dose level 800 mcg/m^2/2 wks, of 3 patients
[14] = dose level 1600 mcg/m^2/2 wks, of 6 patients
[15] = dose level 3200 mcg/m^2/2 wks, of 3 patients
[16] = dose level 4000 mcg/m^2/2 wks, of 3 patients
[17] = dose level 5000 mcg/m^2/2 wks, of 3 patients
[18] = dose level 6000 mcg/m^2/2 wks, of 12 patients
[19] = dose level 7000 mcg/m^2/2 wks, of 7 patients

Structure (SMILES): C[N+](C)(C)C[C@H](O)CC(=O)[O-] [L-carnitine, reference compound]
- effect of L-carnitine on the antitumor activity of aplidine [1]: lack of effect
- increase of aplidine RD by L-carnitine prophylaxis ([2]; human, in vivo): 40%
- only toxicity reported for L-carnitine ([2]; human, in vivo): grade 1 abdominal discomfort and diarrhea
- L-carnitine dose below which it should not be decreased ([2]; in vivo): ≥ 3.5 grams per day
- duration of beneficial effect (normal creatine kinase values) ([2]; in vivo): at least 13 weeks
- outcome in 11 patients receiving L-carnitine prophylaxis from the beginning ([2]; in vivo): just an asymptomatic G1 increase in CK
- tolerability of L-carnitine ([2]; in vivo): well tolerated

Structure (SMILES): CC[C@H](C)[C@H]1NC(=O)[C@@H](NC(=O)[C@@H](CC(C)C)N(C)C(=O)[C@@H]2CCCN2C(=O)C(C)=O)[C@@H](C)OC(=O)[C@H](Cc2ccc(OC)cc2)N(C)C(=O)[C@@H]2CCCN2C(=O)[C@H](CC(C)C)NC(=O)[C@@H](C)C(=O)[C@H](C(C)C)OC(=O)C[C@@H]1O [aplidine] (Pyruvoyl-P[dNMeL]T[X1]LP[NMeY](Me); ester 3-C)
- ornithine decarboxylase activity (ornithine decarboxylase): decreased ornithine decarboxylase activity
- growth inhibition (MDA-MB231): 17%
- expression of FLT1 gene [3]: inhibits expression
- degradation in solution [4]: substantial degradation
- activity against implanted B16 melanoma (B16 melanoma): active
- optimal dose (B16 melanoma): 160 micro/kg
- muscle biopsies, E/M finding ([5]; 2 patients): partial disappearance of thick filaments of myosin
- dose limiting toxicity (muscular changes), patients ([5]; 6000 mcg/m^2): 1/9
- time to recovery of toxicity after treatment discontinuation ([5]; Pat #27): ≤ 3 weeks
- Nausea/vomiting G2, no. patients [5, 11]: 2
- Transaminitis G2, no. patients [5, 11]: 1
- Asthenia G2, no. patients [5, 12]: 2
- Hypertension G2, no. patients [5, 12]: 1
- Nausea/vomiting G2, no. patients [5, 12]: 1
- Flushing G1, no. patients [5, 13]: 1
- Muscle cramps G1 + G2, no. patients [5, 13]: 2
- Asthenia G2, no. patients [5, 14]: 2
- Asthenia G3, no. patients [5, 14]: 1
- Muscle cramps G1 + G2, no. patients [5, 14]: 1
- Nausea/vomiting G2, no. patients [5, 14]: 4
- Transaminitis G3, no. patients [5, 14]: (1)
- Asthenia G2, no. patients [5, 15]: 1
- Flushing G1, no. patients [5, 15]: 1
- Muscle cramps G1 + G2, no. patients [5, 15]: 2
- Muscle pain G2, no. patients [5, 15]: (1)
- Nausea/vomiting G3, no. patients [5, 15]: (1)
- Asthenia G2, no. patients [5, 16]: 1
- Flushing G1, no. patients [5, 16]: 1
- Muscle cramps G1 + G2, no. patients [5, 16]: 2
- Muscle pain G1, no. patients [5, 16]: 2
- Nausea/vomiting G2, no. patients [5, 16]: 2
- Pain central catheter G2, no. patients [5, 16]: 2
- Asthenia G3, no. patients [5, 17]: (1)
- CPK elevation G3, no. patients [5, 17]: (1) [1]
- CPK elevation G4, no. patients [5, 17]: (1) [1]
- Muscle cramps G1 + G2, no. patients [5, 17]: 2
- Muscle pain G1, no. patients [5, 17]: 1
- Muscle weakness G1, no. patients [5, 17]: 1
- Nausea/vomiting G2, no. patients [5, 17]: 1
- Transaminitis G2, no. patients [5, 17]: 1
- Asthenia G2, no. patients [5, 18]: 6
- CPK elevation G2, no. patients [5, 18]: 1(1)
- CPK elevation G3, no. patients [5, 18]: 1(1)
- Muscle cramps G1 + G2, no. patients [5, 18]: 1
- Muscle pain G1, no. patients [5, 18]: 1
- Muscle pain G2, no. patients [5, 18]: 2
- Muscle weakness G1, no. patients [5, 18]: 1(1)
- Muscle weakness G2, no. patients [5, 18]: 1(1)
- Nausea/vomiting G2, no. patients [5, 18]: 2
- Asthenia G2, no. patients [5, 19]: 2
- CPK elevation G2, no. patients [5, 19]: 1
- Flushing G1, no. patients [5, 19]: 1
- Muscle pain G1, no. patients [5, 19]: 1
- Nausea/vomiting G2, no. patients [5, 19]: 1
- Neutrophenia G4, no. patients [5, 19]: 1
- Transaminitis G2, no. patients [5, 19]: 1
- growth of tumour cell lines ([6]; continuous exposure to low concentrations, non-Hodgkin's lymphoma, melanoma, breast, ovarian, non-small cell lung cancers): inhibited the growth
- concentration at which cell lines were sensitive ([6]; continuous exposure): >= 0.001 micromol/L
- activity in SC implanted lewis lung carcinomas (lewis lung carcinomas): active
- t ½ in the 3 patients with clear muscular toxicity ([7]; 24 h infusion): > 44 h
- coefficient of variation of CL (interpatient) ([7]; human, in vivo): 62%
- PK profile ([7]; low sample size): dose-linear
- terminal phase median half-life ([7]; preliminary compartmental analysis, 24 h infusion): 25.8 h
- initial phase median half-life ([7]; preliminary compartmental analysis, first-order 2-compartment model): 0.64 h
- t ½, median ([7]; quartiles 15.7-35.0): 23.8 h
- plasma CL, median ([7]; quartiles 192-415): 252 mL/min/m^2
- Vss, median ([7]; quartiles 274-638): 413 L/m^2
- toxicity in some subjects without L-carnitine ([2]; 24-hour infusion, 4500 mcg/m^2 every week, then 6000 mcg/m^2 every second week): muscular and skeletal toxicity
- new dose-limiting factor under L-carnitine prophylaxis ([2]; 24 h every other week infusion study): non-muscular
- electron microscopy of muscle, most important change ([2]; biopsied patients): disappearance of thick filaments
- dose from which muscle cramps occur (mild cases) ([2]; every 2 weeks): ≥ 3200 mcg/m2
- onset of myotoxicity, number of infusions, median ([2]; in vivo): 4 infusions
- relationship of myotoxicity to exposure ([2]; in vivo): related to prolonged exposure rather than high exposure or concentrations
- reversible increases in creatin-kinase (CK), grade reached ([2]; more severe cases): ≤ 3 grade
- dose-limiting toxicity ([8]; 1-hour infusion for 5 consecutive days every 3 weeks): Muscular/long; also recorded: lasting emesis
- dose-limiting factor ([8]; 4 Phase I trials): skeletal muscle toxicity
- dose-limiting toxicity ([8]; 24 hour infusion every 2 weeks, L-carnitine daily): Flu-like
- dose-limiting toxicity ([8]; weekly 24 hour infusion for 3 weeks, 1 week rest): Muscular/; also recorded: hepatic
- RD of aplidine ([8]; with L-carnitine 0.1 g/kg/day in 3 portions, for Phase II studies): 7 mg/m^2
- growth inhibition (MCF-7): 47%
- activity against implanted P388 leukaemia (P388 leukaemia): active
- optimal dose (P388 leukaemia): 160 micro/kg
- remissions (human cancer xenografts; 2.1 mg/kg): near complete remissions in some animals
- treated/control (T/C) tumour ratio (human cancer xenografts; 2.1 mg/kg): 9%
- maximum tolerated dose (human cancer xenografts; mice): 2.1 mg/kg
- spermidine and spermine in treated cells (spermidine and spermine): significant increase
- cytotoxic activity [9]: dose-dependent cytotoxic activity
- cell cycle perturbations (cell cycle): did not induce any apparent cell cycle pertubations
- activity on human bladder cancer (human bladder cancer): exceedingly high activity
- production of VEGF protein by tumour cells (VEGF protein): severely inhibit production
- responses in cancer patients ([10]; clinical trials): Responses in cancer patients have been observed
- antitumour activity in patients ([10]; patients with NHL and renal carcinoma): Antitumour activity has been also noted
- cytotoxic activity (CT-1): dose-dependent cytotoxic activity
- cytotoxic activity (CT-2): dose-dependent cytotoxic activity
- relative sensitivity among CT-1, CT-2, HT-29 (CT-2; most proliferative line): most sensitive
